Earlier results in US8404645B2, “Stable formulations of amylin and its analogues” (Novo Nordisk AS, priority 2007, dated 2013).
Where no end group is shown, it is not given here.

Settings: treated test animals; provoking marked hyperlactemia followed by hyperglycemia

Row | Substance | Amylin activity in vivo
1 | Arg18 Pro25 Pro 28-des-Lys1-h-amylin | show amylin activity in vivo
2 | Arg18 Pro25 Pro28-h-amylin | show amylin activity in vivo
3 | Pro28-h-amylin (KCNTATCATQRLANFLVHSSNNFGAILPSTNVGSNTY; ends and bridges not checked; cysteine pairing not given here; UniProt P10997 34-70, looked up, variant S28P) [human amylin analog, Pro at position 28] | show amylin activity in vivo
4 | Pro25 Val26 Pro 28 Pro29-h-amylin | show amylin activity in vivo
5 | des-Lys1-h-amylin | show amylin activity in vivo
